Data on 27 compounds can be found in patent US9018208B2, “Heterocycles as potassium channel modulators” (Icagen Inc., priority 2007, dated 2015).

Some results are limits rather than exact numbers.

The test system of the assay is SH-SY5Y M-currents (KCNQ2, KCNQ3 and KCNQ5). The assay can be described thus: SH-SY5Y native cell line FLIPR assay (voltage-sensitive dye DiBAC). The following applies: FLIPR assay, SH-SY5Y native cell line; Table 2; read-out: SH-SY5Y EC50. It is filed as cell-based, mouse neuroblastoma, rat glioma hybrid cell line. The method, boiled down: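 Response is peak DiBAC fluorescence change, normalised to the maximum from a positive control agent, sampled every 30 s over 25 min. Before compound addition, SH-SY5Y cells differentiated with PGE1 plus isomethylbutylxanthine were dye-loaded for 1 h in EBSS with […] DiBAC.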
Take `CC(C)(C)CC(=O)Nc1nc2cc(C(F)(F)F)ccn2c1-c1ccccc1` [Compound 100, 3,3-dimethyl-N-(3-phenyl-7-(trifluoromethyl)imidazo[1,2-a]pyridin-2-yl)butanamide]: the concentration giving a half-maximal response (EC50) was in the range of 500 to 3000 nM.
Regarding `O=C(Cc1ccccc1)Nc1nc2cc(C(F)(F)F)ccn2c1-c1ccccc1` [Compound 101, 2-phenyl-N-(3-phenyl-7-(trifluoromethyl)imidazo[1,2-a]pyridin-2-yl)acetamide], the EC50 was 500 to 3000 nM.
Turning to `O=C(Cc1ccc(F)cc1)Nc1nc2ccc(F)cn2c1-c1ccc(F)cc1` [Compound 102, N-(6-fluoro-3-(4-fluorophenyl)imidazo[1,2-a]pyridin-2-yl)-2-(4-fluorophenyl)acetamide], the half-maximal effective concentration (EC50) is under 500 nM.
For `CC(C)(C)CC(=O)Nc1nc2ccc(F)cn2c1-c1ccc(F)cc1` [Compound 103, N-(6-fluoro-3-(4-fluorophenyl)imidazo[1,2-a]pyridin-2-yl)-3,3-dimethylbutanamide] the value was under 500 nM; for `O=C(CC(F)(F)F)Nc1nc2cc(C(F)(F)F)ccn2c1-c1ccccc1` [Compound 104, 3,3,3-trifluoro-N-(3-phenyl-7-(trifluoromethyl)imidazo[1,2-a]pyridin-2-yl)propanamide], 3000 to 10000 nM.
With `O=C(CCC(F)(F)F)Nc1nc2cc(C(F)(F)F)ccn2c1-c1ccccc1` [Compound 105, 4,4,4-trifluoro-N-(3-phenyl-7-(trifluoromethyl)imidazo[1,2-a]pyridin-2-yl)butanamide] the figure was 3000 to 10000 nM.
For `O=C(Cc1ccccc1)Nc1nc2ccc(F)cn2c1-c1ccc(F)cc1` [Compound 106, N-(6-fluoro-3-(4-fluorophenyl)imidazo[1,2-a]pyridin-2-yl)-2-phenylacetamide] the value was 500 to 3000 nM.
Regarding `O=C(CC1CCCC1)Nc1nc2ccc(F)cn2c1-c1ccc(F)cc1` [Compound 107, 2-cyclopentyl-N-(6-fluoro-3-(4-fluorophenyl)imidazo[1,2-a]pyridin-2-yl)acetamide], the EC50 is under 500 nM.
With `O=C(CCC(F)(F)F)Nc1nc2ccc(F)cn2c1-c1ccc(F)cc1` [Compound 108, 4,4,4-trifluoro-N-(6-fluoro-3-(4-fluorophenyl)imidazo[1,2-a]pyridin-2-yl)butanamide] the figure was 500 to 3000 nM.
For `CC(C(=O)Nc1nc2ccc(F)cn2c1-c1ccc(F)cc1)c1ccccc1` (stereo not drawn) [Compound 109, N-(6-fluoro-3-(4-fluorophenyl)imidazo[1,2-a]pyridin-2-yl)-2-phenylpropanamide] the value was 500 to 3000 nM.
For `CC(C(=O)Nc1nc2cc(C(F)(F)F)ccn2c1-c1ccccc1)c1ccccc1` (stereo not drawn) [Compound 110, 2-phenyl-N-(3-phenyl-7-(trifluoromethyl)imidazo[1,2-a]pyridin-2-yl)propanamide] the value was 500 to 3000 nM; for `O=C(Cc1ccc(F)cc1)Nc1nc2cc(C(F)(F)F)ccn2c1-c1ccc(F)cc1` [Compound 111, 2-(4-fluorophenyl)-N-(3-(4-fluorophenyl)-7-(trifluoromethyl)imidazo[1,2-a]pyridin-2-yl)acetamide], 500 to 3000 nM; for `O=C(Cc1ccccc1)Nc1nc2cc(C(F)(F)F)ccn2c1-c1ccc(F)cc1` [Compound 112, N-(3-(4-fluorophenyl)-7-(trifluoromethyl)imidazo[1,2-a]pyridin-2-yl)-2-phenylacetamide], 500 to 3000 nM.
With `CC(C)(C)CC(=O)Nc1nc2cc(C(F)(F)F)ccn2c1-c1ccc(F)cc1` [Compound 113, N-(3-(4-fluorophenyl)-7-(trifluoromethyl)imidazo[1,2-a]pyridin-2-yl)-3,3-dimethylbutanamide], the EC50 fell in the range of 500 to 3000 nM.
With `CC(C(=O)Nc1nc2cc(C(F)(F)F)ccn2c1-c1ccc(F)cc1)c1ccccc1` (stereo not drawn) [Compound 114, N-(3-(4-fluorophenyl)-7-(trifluoromethyl)imidazo[1,2-a]pyridin-2-yl)-2-phenylpropanamide] the figure was 500 to 3000 nM; with `O=C(Cc1ccccc1)Nc1nc2ccc(F)cn2c1-c1ccc(F)cc1F` [Compound 115, N-(3-(2,4-difluorophenyl)-6-fluoroimidazo[1,2-a]pyridin-2-yl)-2-phenylacetamide], 500 to 3000 nM; with `CC(C)(C)CC(=O)Nc1nc2ccc(F)cn2c1-c1ccc(F)cc1F` [Compound 116, N-(3-(2,4-difluorophenyl)-6-fluoroimidazo[1,2-a]pyridin-2-yl)-3,3-dimethylbutanamide], 500 to 3000 nM.
On to `O=C(Cc1ccc(F)cc1)Nc1nc2ccc(F)cn2c1-c1ccc(F)cc1F` [Compound 117, N-(3-(2,4-difluorophenyl)-6-fluoroimidazo[1,2-a]pyridin-2-yl)-2-(4-fluorophenyl)acetamide], for which the EC50 lay within 500 to 3000 nM.
With `O=C(CC1CCCC1)Nc1nc2ccc(F)cn2c1-c1ccc(F)cc1F` [Compound 118, 2-cyclopentyl-N-(3-(2,4-difluorophenyl)-6-fluoroimidazo[1,2-a]pyridin-2-yl)acetamide] the figure was 500 to 3000 nM.
With `O=C(Cc1ccccc1)Nc1nc2ccc(C(F)(F)F)cn2c1-c1ccc(F)cc1` [Compound 119, N-(3-(4-fluorophenyl)-6-(trifluoromethyl)imidazo[1,2-a]pyridin-2-yl)-2-phenylacetamide] the figure was under 500 nM; with `CC(C)(C)CC(=O)Nc1nc2ccc(C(F)(F)F)cn2c1-c1ccc(F)cc1` [Compound 120, N-(3-(4-fluorophenyl)-6-(trifluoromethyl)imidazo[1,2-a]pyridin-2-yl)-3,3-dimethylbutanamide], under 500 nM; with `O=C(Cc1ccc(F)cc1)Nc1nc2ccc(C(F)(F)F)cn2c1-c1ccc(F)cc1` [Compound 121, 2-(4-fluorophenyl)-N-(3-(4-fluorophenyl)-6-(trifluoromethyl)imidazo[1,2-a]pyridin-2-yl)acetamide], under 500 nM.
For `O=C(Cc1ccc(F)cc1)Nc1nc2cc(C(F)(F)F)ccn2c1-c1ccc(F)cc1F` [Compound 122, N-(3-(2,4-difluorophenyl)-7-(trifluoromethyl)imidazo[1,2-a]pyridin-2-yl)-2-(4-fluorophenyl)acetamide] the value was 500 to 3000 nM; for `CC(C)(C)CC(=O)Nc1nc2cc(C(F)(F)F)ccn2c1-c1ccc(F)cc1F` [Compound 123, N-(3-(2,4-difluorophenyl)-7-(trifluoromethyl)imidazo[1,2-a]pyridin-2-yl)-3,3-dimethylbutanamide], 500 to 3000 nM; for `O=C(Cc1ccccc1)Nc1nc2cc(C(F)(F)F)ccn2c1-c1ccc(F)cc1F` [Compound 124, N-(3-(2,4-difluorophenyl)-7-(trifluoromethyl)imidazo[1,2-a]pyridin-2-yl)-2-phenyl acetamide], 500 to 3000 nM.
Turning to `O=C(CC1CCCC1)Nc1nc2cc(C(F)(F)F)ccn2c1-c1ccc(F)cc1F` [Compound 125, 2-cyclopentyl-N-(3-(2,4-difluorophenyl)-7-(trifluoromethyl)imidazo[1,2-a]pyridin-2-yl)acetamide], the EC50 fell in the range of 500 to 3000 nM.
Consider `O=C(Cc1ccc(F)cc1)Nc1nc2ccc(F)cn2c1-c1ccc(C(F)(F)F)cc1` [Compound 126, N-(6-fluoro-3-(4-(trifluoromethyl)phenyl)imidazo[1,2-a]pyridin-2-yl)-2-(4-fluorophenyl)acetamide], for which the EC50 lay within 500 to 3000 nM.
